Drawing on publication PMC11704350 (2025), this text covers DC50, ΔTm and Kd for eleven compounds.

What is called ΔTm is the change in melting temperature against a reference sample. For orientation: Kd means the free concentration of one partner at which half of the binding sites on the other are occupied at equilibrium, for simple one-to-one binding. A high value points to weaker binding.

Test [1] concerns Nrf2C (DNA, i motif) CCCTCCCGCCCTTGCTCCCTTCCC
Kind of test: fluorescent indicator displacement. Conditions: 100 mM KCl, 10 mM sodium cacodylate pH 6.5, room temperature, thiazole orange displaced.

Test [2] has as its system Nrf2G (DNA, G4) GGGAAGGGAGCAAGGGCGGGAGGG
Kind of test: CD melting (264 nm). Conditions: 100 mM KCl, 10 mM sodium cacodylate pH 6.5, 50 µM ligand, 10 µM DNA.

In test [3] the test system is DS (DNA, duplex) GGCATAGTGCGTGGGCGTTAGC/GCTAACGCCCACGCACTATGCC
Kind of test: CD melting (253 nm). Conditions: 100 mM KCl; 10 mM sodium cacodylate pH 6.5; 50 µM ligand, 10 µM DNA.

For test [4], the system named is Nrf2C (DNA, i motif) CCCTCCCGCCCTTGCTCCCTTCCC
Kind of test: UV titration (ligand absorbance). Conditions: 100 mM KCl, 10 mM sodium cacodylate pH 6.5, DNA up to 50 µM.

Test [5] concerns Nrf2G (DNA, G4) GGGAAGGGAGCAAGGGCGGGAGGG
Kind of test: UV titration (ligand absorbance). Conditions: 100 mM KCl, 10 mM sodium cacodylate pH 6.5, DNA up to 50 µM.

The test system of test [6] is DS (DNA, duplex) GGCATAGTGCGTGGGCGTTAGC/GCTAACGCCCACGCACTATGCC
In words: UV titration (ligand absorbance). Conditions: 100 mM KCl, 10 mM sodium cacodylate pH 6.5, DNA up to 50 µM.

The test system of test [7] is hTeloC (DNA, i motif) TAACCCTAACCCTAACCCTAACCC
Kind of test: UV titration (ligand absorbance). Conditions: 100 mM KCl, 10 mM sodium cacodylate pH 6.5, DNA up to 50 µM.

The subject of test [8] is hTeloG (DNA, G4) GGGTTAGGGTTAGGGTTAGGGTTA
In words: UV titration (ligand absorbance). Conditions: 100 mM KCl, 10 mM sodium cacodylate pH 6.5, DNA up to 50 µM.

For test [9], the system named is DAPC (DNA, i motif) CCCCCGCCCCCGCCCCCGCCCCCGCCCCC
Kind of test: UV titration (ligand absorbance). Conditions: 100 mM KCl, 10 mM sodium cacodylate pH 6.5, DNA up to 50 µM.

In test [10] the test system is DAPG (DNA, G4) GGGGGCGGGGGCGGGGGCGGGGGCGGGGG
In words: UV titration (ligand absorbance). Conditions: 100 mM KCl, 10 mM sodium cacodylate pH 6.5, DNA up to 50 µM.

Test [11] concerns Nrf2C (DNA, i motif) CCCTCCCGCCCTTGCTCCCTTCCC
Kind of test: CD melting (288 nm). Conditions: 100 mM KCl; 10 mM sodium cacodylate pH 6.5; 50 µM ligand, 10 µM DNA.

[12] abbreviates: 0.5 µM DNA (legend; methods 1 µM).

As to `C=Cc1cc(OC)c2c(c1)c(=O)oc1c2cc(OC)c2c(O)ccc(C3OC(C)C(O)C(C)(O)C3O)c21` (stereo not drawn), the DC50 in test [1] (setting [12]) was 6.3 ± 0.6 µM.
As to `CCC(=O)c1ccc(O)c(O)c1`, in test [1] (setting [12]), the DC50 is given as 1.5 ± 0.1 µM.
Compound `COc1cc(-c2ccc(Nc3ccccc3C(=O)O)c(OC)c2)ccc1Nc1ccccc1C(=O)O` had a DC50 in [1] (setting [12]) of 2.3 ± 0.1 µM.
As to `COc1cccc2c1C(=O)c1c(O)c3c(c(O)c1C2=O)C[C@@](O)(C(C)=NO)C[C@@H]3O[C@H]1C[C@H](N)[C@H](O)[C@H](C)O1`, the DC50 in [1] (setting [12]) is recorded as 4.9 ± 1.5 µM.
Regarding `Cc1c2ccncc2c(C)c2c1[nH]c1ccccc12`, in test [1] (setting [12]), the DC50 was found to be 3.9 ± 1.0 µM.
On the same count and under the same terms, next, `Cc1cc2nc3ccc(N(C)C)cc3[s+]c2cc1N`: 16 ± 2.7 µM; `Cc1ccc(NCCN(C)C)c2c(=O)c3cc(O)ccc3sc12`: 3.4 ± 0.5 µM.
`Clc1c(Cl)c(Cl)c2[nH]nnc2c1Cl`: the DC50 in test [1] (setting [12]) is given as 3.2 ± 0.1 µM.
Turning to `Nc1ccc(-c2nc3nc(N)nc(N)c3nc2-c2ccc(N)cc2)cc1`, the DC50 in test [1] (setting [12]) is listed as 12 ± 3.4 µM.
As to `O=C(Nc1ccc(Nc2ccncc2)cc1)c1ccc(Nc2ccnc3ccc([N+](=O)[O-])cc23)cc1[N+](=O)[O-]`, the ΔTm stood at 5 ± 1.0 °C in test [2] (error ± 0.3) and 0 ± 0.7 °C in test [3]. The Kd came to 0.25 ± 0.1 µM in [4] (ligand monitored at 320 nm); 0.6 ± 0.1 µM in test [5] (ligand monitored at 320 nm); 1.9 ± 0.1 µM in [6] (ligand monitored at 320 nm); 1.1 ± 0.2 µM in test [7] (ligand monitored at 320 nm); 1.0 ± 0.1 µM in [8] (ligand monitored at 320 nm); 0.9 ± 0.1 µM in test [9] (ligand monitored at 320 nm). For the same compound, in [10] (ligand monitored at 320 nm), the Kd is given as 1.6 ± 0.2 µM. The DC50 in [1] (poor ligand solubility) is reported as greater than 20 µM.
On to `O=C1c2cccc3cc([N+](=O)[O-])cc(c23)C(=O)N1CCN1CCCC1`, for which the ΔTm in test [11] was -1 ± 1.0 °C; in test [2], 9 ± 0.3 °C; in [3] it was 9 ± 0.8 °C. The Kd in test [4] (ligand monitored at 335 nm) is on record as 20 ± 1.8 µM; in [5] (ligand monitored at 335 nm) it was 6.6 ± 0.9 µM; in [6] (ligand monitored at 335 nm) it was 2.4 ± 0.2 µM; in [7] (ligand monitored at 335 nm), 10 ± 1.3 µM; in test [8] (ligand monitored at 335 nm) it was 6.2 ± 0.4 µM; in test [9] (ligand monitored at 335 nm), 6.0 ± 0.9 µM. In test [10] (ligand monitored at 335 nm), this compound returned a Kd of 8.2 ± 0.7 µM. Moreover, the DC50 in [1] (setting [12]) was found to be 13 ± 3.0 µM.
